This note sets out measurements from patent US20110213033A1, “SKIN CONDITIONER” (Kabushiki Kaisha Soken, priority 1998, published 2011).

The subject of test [1] is normal human skin fibroblasts. Put plainly: Collagen production recovery test on damaged fibroblasts. It counts as cell-based. The conditions noted are these: hypoxanthine/xanthine oxidase damage; samples at final concentration 3.3%, 24 hours at 37° C.; FIG. 1. As to the method:
A collagen production recovery test was conducted on damaged fibroblasts. Six to eight subcultures of normal human skin fibroblasts (Physicochemical Research Institute, Cell Development Bank BIRGB) were used in the test. […] Measurement of collagen production ability of a confluent in the steady state was performed according to the method of Webster, et al. based on the uptake of ^3H-proline into the produced collagen. […] Since proline is a main component of the amino acids that compose collagen, fibroblasts are cultured in a medium containing ^3H-proline, and the ^3H activity taken up into collagen in the cells is measured. Units are in d.p.m., and represent the number of […] of radioactivity released per minute.

In the next test the test system is atopic skin. Put plainly: 2-hour moisture retention duration test on atopic skin. Type of test: in vivo, human. The settings on record: FIGS. 21 through 31. As to the method:
A 2-hour moisture retention duration test was performed on atopic skin.
Panelists: 7 persons with atopic skin
Test Method: Same as Test Example 2
Measurement Method: Same as Text Example 2
Test Apparatus: Same as Test Example 2

With `N=C(N)NCCC[C@H](N)C(=O)O` [L-arginine], the “collagen production ability of fibroblasts damaged by active oxygen (3H-proline uptake into collagen)” value in test [1] is listed as “significantly improved”. The “moisture retention duration (30 to 120 minutes after application)” value with atopic skin is “continuation of moisture retention was observed”.
In the same order, the values of `NCCO` [ethanolamine] are “significantly improved” and “continuation of moisture retention was observed”.
